Results published in the supplement of paper PMC10307832.

Legend:
Experiment in all cases: relative viability (nuclei count vs DMSO), 5 days (fraction); higher = more cells survive
[1] = compound: Cc1nc(NC(=O)N2CCC[C@H]2C(N)=O)sc1-c1ccnc(C(C)(C)C(F)(F)F)c1 [Alpelisib] + O=C(c1cc(Cc2n[nH]c(=O)c3ccccc23)ccc1F)N1CCN(C(=O)C2CC2)CC1 [Olaparib] (partner 8 µM)
Summary of the method: (§1)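 Relative viability divides the nuclei count in treated wells by that in vehicle wells. Lung cancer cell lines were seeded in 1536-well plates, dosed by pin tool the next day, and fixed and stained after 5 days in one step with final 0.05% Triton X-100, 1% formaldehyde and 1 ug/ml Hoechst. Dosing was a single drug or a fixed anchor-drug dose plus five library-drug doses (not always all listed) in √10 steps, and values are medians of duplicate plates imaged at 4×.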

[2] = compound: COc1cccc2cc(-c3nc([C@H]4CC[C@H](C(=O)O)CC4)n4ncnc(N)c34)[nH]c12 [OSI-027] + CS(=O)(=O)CCNCc1ccc(-c2ccc3ncnc(Nc4ccc(OCc5cccc(F)c5)c(Cl)c4)c3c2)o1 [Lapatinib] (partner 2 µM)
Summary of the method: as §1

[3] = compound: CCCS(=O)(=O)Nc1ccc(F)c(C(=O)c2c[nH]c3ncc(-c4ccc(Cl)cc4)cc23)c1F [Vemurafenib] + CS(=O)(=O)CCNCc1ccc(-c2ccc3ncnc(Nc4ccc(OCc5cccc(F)c5)c(Cl)c4)c3c2)o1 [Lapatinib] (partner 2 µM)
Summary of the method: as §1

[4] = compound: COc1cccc2cc(-c3nc([C@H]4CC[C@H](C(=O)O)CC4)n4ncnc(N)c34)[nH]c12 [OSI-027] + CS(=O)(=O)N1CCN(Cc2cc3nc(-c4cccc5[nH]ncc45)nc(N4CCOCC4)c3s2)CC1 [Pictilisib] (partner 1 µM)
Summary of the method: as §1

| Cell Line | relative viability ([1]; first compound 0.04 µM) | relative viability ([1]; first compound 0.1265 µM) | relative viability ([1]; first compound 0.4 µM) | relative viability ([1]; first compound 1.265 µM) | relative viability ([1]; first compound 4 µM) | relative viability ([2]; first compound 0.01 µM) | relative viability ([2]; first compound 0.03162 µM) | relative viability ([2]; first compound 0.1 µM) | relative viability ([2]; first compound 0.3162 µM) | relative viability ([2]; first compound 1 µM) | relative viability ([3]; first compound 0.03162 µM) | relative viability ([3]; first compound 0.1 µM) | relative viability ([3]; first compound 0.3162 µM) | relative viability ([3]; first compound 1 µM) | relative viability ([4]; first compound 0.01 µM) | relative viability ([4]; first compound 0.03162 µM) | relative viability ([4]; first compound 0.1 µM) | relative viability ([4]; first compound 0.3162 µM) | relative viability ([4]; first compound 1 µM) |
| --- | --- | --- | --- | --- | --- | --- | --- | --- | --- | --- | --- | --- | --- | --- | --- | --- | --- | --- | --- |
| NCI-H3122 | 0.644 | 0.657 | 0.668 | 0.647 | 0.508 | 1.09 | 1.1 | 1.14 | 1.05 | 0.808 | 1.03 | 1.04 | 1.12 | 1.02 | 0.603 | 0.584 | 0.513 | 0.317 | 0.258 |
| PC-3 [JPC-3] | 1.23 | 1.1 | 1.24 | 0.967 | 1.02 | 0.452 | 0.454 | 0.412 | 0.327 | 0.298 | 0.464 | – | 0.626 | 0.445 | 0.68 | 0.675 | 0.697 | 0.62 | 0.521 |
| PC-14 | 0.263 | 0.348 | 0.512 | 0.276 | 0.295 | 0.3 | 0.306 | 0.293 | 0.255 | 0.179 | 0.255 | – | 0.287 | 0.362 | 0.526 | 0.719 | 0.722 | 0.544 | 0.171 |
| RERF-LC-KJ | 0.878 | 0.894 | 0.84 | 0.655 | 0.74 | 0.778 | 0.843 | 0.78 | 0.589 | 0.376 | 0.782 | 0.903 | 0.799 | 0.891 | 0.508 | 0.542 | 0.492 | 0.393 | 0.344 |
| SK-LU-1 | 0.491 | 0.472 | 0.532 | 0.378 | 0.41 | 0.888 | 0.817 | 0.656 | 0.519 | 0.29 | 0.777 | 0.791 | – | 0.803 | 0.529 | 0.462 | 0.355 | 0.272 | 0.287 |
| SK-MES-1 | 0.616 | 0.556 | 0.786 | 0.622 | 0.544 | 0.481 | 0.435 | 0.371 | 0.316 | 0.253 | 0.427 | 0.477 | 0.493 | 0.486 | 0.323 | 0.362 | 0.333 | 0.278 | 0.252 |
| SW 1573 | 0.431 | 0.455 | 0.406 | 0.341 | 0.311 | 0.941 | 1.14 | 1.05 | 0.989 | 0.636 | 1.01 | 0.916 | 1.02 | 0.978 | 0.466 | 0.436 | 0.458 | 0.357 | 0.205 |
